Molecules are shown by their SMILES.

Consider two compounds from patent publication US20010044384A1, “Method of preventing premature fruit drop from apple trees” (priority 1998, published 2001).

Holding throughout (format): in vivo
For assay [1], the system named is McIntosh® Apple trees. Nature of the assay: Example 1: spraying McIntosh apple trees with cyclanilide suspension, observations about two months later. To be noted: about two months after spraying; for % fruit dropped from tree: with Regulaid 0.25% v/v. The text has this: An orchard of McIntosh® Apple trees at a stage where the apples were approximately 4.5 cm in diameter were sprayed with an aqueous suspension comprising cyclanilide and Regulaid®, a non-ionic surfactant (0.25% v/v) at several rates. About two months later, the following observations were made: […]

Assay [2] deals with McIntosh® Apple trees. Nature of the assay: Example 2: cyclanilide vs ReTain vs untreated on apple trees, results just before harvest. To be noted: for % cumulative fruit dropped from tree / Fruit Starch Index: just before harvest. The text has this: An orchard of McIntosh® Apple trees at a stage where the apples were approximately 4.5 cm in diameter were sprayed with an aqueous suspension comprising cyclanilide and Regulaid®, a non-ionic surfactant (0.25% v/v) at several rates. About two months later, the following observations were made:
The process of Example 1 was repeated using an aqueous suspension comprising cyclanilide and a surfactant using an application rate of cyclanilide of 50 g/ha. As a comparison, ReTain® ([S]-trans-2-amino-4-(2-aminoethoxy)-3-butenoic acid) was applied according to commercially acceptable methods on another plot of trees and another plot of trees were left untreated.
Just before harvest, the following results were obtained: […]

The next assay has as its system apple trees. Nature of the assay: General findings on apples treated by the method of the invention (description).
Setting [3] is: compared with untreated fruit and fruit treated by prior art compounds.

As to `O=C(O)C1(C(=O)Nc2ccc(Cl)cc2Cl)CC1` [cyclanilide, 1-(2,4-dichloroanilinocarbonyl)cyclopropane carboxylic acid], in the assay on McIntosh® Apple trees [1] (cyclanilide 50 g/ha), the “BRIX index (soluble solids)” value was 13, the “Fruit Starch Index” value was 5.1 and the “% fruit dropped from tree” value amounted to 6%. In addition, in the assay on McIntosh® Apple trees [1] (cyclanilide 100 g/ha), the “BRIX index (soluble solids)” value came to 12.9, the “Fruit Starch Index” value amounted to 5.0 and the “% fruit dropped from tree” value came to 9.8%. In the assay with McIntosh® Apple trees [1] (cyclanilide 200 g/ha), the “BRIX index (soluble solids)” value is given as 13.0, the “Fruit Starch Index” value is 4.9 and the “% fruit dropped from tree” value is reported as 13.5%. Also, in the assay with McIntosh® Apple trees [2] (50 g/ha of ingredient), the “% cumulative fruit dropped from tree” value came out at 47.4% and the “Fruit Starch Index” value came to 5.0. Also, in the assay on McIntosh® Apple trees [2] (cyclanilide 50 g/ha, compared with ReTain-treated fruit), the “color of the fruit” value is reported as “better than that of the fruit treated by the prior art compound ReTain®”. In the assay on McIntosh® Apple trees [2] (cyclanilide 50 g/ha, compared with untreated fruit and ReTain-treated fruit), the “overall quality of fruit” value is “better than that of the untreated fruit and that obtained from treatment by the prior art compound ReTain®”. The “starch content of apples” value with apple trees (compared with apples not treated) was “lower starch content than apples not treated by the method of the invention”. For the same compound, the “color characteristic of apples” value with apple trees (compared with fruit treated by prior art compounds) is given as “better color characteristic than fruit treated by prior art compounds”. In the assay on apple trees (setting [3]), the “content of soluble solids as measured by the BRIX index” value is “higher content of soluble solids than untreated fruit and than fruit treated by prior art compounds”; the firmness of apples entry is “greater firmness than untreated fruit and than fruit treated by prior art compounds”. For the same compound, the “amount of fruit drop as a function of the amount applied” value with apple trees (general statement) is “generally decreases as a function of the amount of cyclanilide applied”.
With `NCCO/C=C/[C@H](N)C(=O)O` (stereo in doubt) [ReTain ®, [S]-trans-2-amino-4-(2-aminoethoxy)-3-butenoic acid, reference compound], in the assay with McIntosh® Apple trees [2] (125 g/ha of ingredient), the “% cumulative fruit dropped from tree” value is listed as 68.2% and the “Fruit Starch Index” value is reported as 5.4.
